Laboratory results taken from US20200172491A1, “SUBSTITUTED 5-(HET-)ARYLPYRAZOLAMIDES AND SALTS THEREOF AND THEIR USE AS HERBICIDAL ACTIVE SUBSTANCES” (Bayer CropScience Aktiengesellschaft, priority 2017, published 2020).

Tested on: Matricaria inodora
Assay: Post-emergence herbicidal action
Type: in vivo
Details: 320 g/ha, rated after about 3 weeks, 100% = plants have died, 0% = like control plants
Protocol: (§1) Seeds of monocotyledonous and dicotyledonous weeds and crop plants were placed in sandy loam in plastic or wood-fiber pots, covered with soil and cultivated in a greenhouse under controlled growth conditions. 2 to 3 weeks after sowing, the test plants were treated at the one-leaf stage. The compounds of the invention, formulated in the form of wettable powders (WP) or as emulsion concentrates (EC), were then sprayed onto the green parts of the plants as aqueous suspension or emulsion with addition of 0.5% additive at a water application rate of 600 l/ha (converted). After the test plants had been kept in the greenhouse under optimum growth conditions for about 3 weeks, the activity of the preparations was rated visually in comparison to untreated controls. For example, 100% activity=the plants have died, 0% activity=like control plants. Tables B1 to B6 below show the effects of selected compounds of the general formula (I) according to Table A1 at an application rate of 320 g/ha on various harmful plants, which were obtained by the aforementioned experimental procedure.

| Structure (SMILES) | herbicidal activity on Matricaria inodora (visual rating vs untreated controls) [%] |
| --- | --- |
| Cc1cccc(NC(=O)c2c(C)nn(C)c2-c2ccc(F)cc2Cl)c1C [I-030] | 90 |

Tested on: Amaranthus retroflexus
Assay: Post-emergence herbicidal action
Type: in vivo
Details: 320 g/ha, rated after about 3 weeks, 100% = plants have died, 0% = like control plants
Protocol: as §1

| Structure (SMILES) | herbicidal activity on Amaranthus retroflexus (visual rating vs untreated controls) [%] |
| --- | --- |
| Cc1nn(C)c(-c2cc(F)ccc2Cl)c1C(=O)Nc1cccc(Cl)c1 [I-004] | 100 |
| Cc1nn(C)c(-c2ccc(F)cc2Cl)c1C(=O)Nc1cc(F)ccc1F [I-008] | 100 |
| Cc1nn(C)c(-c2ccc(F)cc2Cl)c1C(=O)Nc1cccc2c1C(C)OC2(C)C (centres unmarked) [I-019] | 100 |
| Cc1cccc(NC(=O)c2c(C)nn(C)c2-c2ccc(F)cc2Cl)c1 [I-022] | 100 |
| Cc1nn(C)c(-c2ccc(F)cc2Cl)c1C(=O)Nc1ccccc1Cl [I-029] | 100 |
| Cc1cccc(NC(=O)c2c(C)nn(C)c2-c2ccc(F)cc2Cl)c1C [I-030] | 100 |

Tested on: Ipomoea purpurea
Assay: Post-emergence herbicidal action
Type: in vivo
Details: 320 g/ha, rated after about 3 weeks, 100% = plants have died, 0% = like control plants
Protocol: as §1

| Structure (SMILES) | herbicidal activity on Ipomoea purpurea (visual rating vs untreated controls) [%] |
| --- | --- |
| Cc1cccc(NC(=O)c2c(C)nn(C)c2-c2ccc(F)cc2Cl)c1C [I-030] | 100 |

Tested on: Stellaria media
Assay: Post-emergence herbicidal action
Type: in vivo
Details: 320 g/ha, rated after about 3 weeks, 100% = plants have died, 0% = like control plants
Protocol: as §1

| Structure (SMILES) | herbicidal activity on Stellaria media (visual rating vs untreated controls) [%] |
| --- | --- |
| Cc1nn(C)c(-c2cc(F)ccc2Cl)c1C(=O)Nc1cccc(Cl)c1 [I-004] | 100 |
| Cc1nn(C)c(-c2ccc(F)cc2Cl)c1C(=O)Nc1cc(F)ccc1F [I-008] | 100 |
| Cc1nn(C)c(-c2ccc(F)cc2Cl)c1C(=O)Nc1cccc2c1C(C)OC2(C)C (centres unmarked) [I-019] | 80 |
| Cc1cccc(NC(=O)c2c(C)nn(C)c2-c2ccc(F)cc2Cl)c1 [I-022] | 100 |
| Cc1nn(C)c(-c2ccc(F)cc2Cl)c1C(=O)Nc1ccccc1Cl [I-029] | 100 |
| Cc1cccc(NC(=O)c2c(C)nn(C)c2-c2ccc(F)cc2Cl)c1C [I-030] | 100 |

Tested on: Veronica persica
Assay: Post-emergence herbicidal action
Type: in vivo
Details: 320 g/ha, rated after about 3 weeks, 100% = plants have died, 0% = like control plants
Protocol: as §1

| Structure (SMILES) | herbicidal activity on Veronica persica (visual rating vs untreated controls) [%] |
| --- | --- |
| Cc1nn(C)c(-c2cc(F)ccc2Cl)c1C(=O)Nc1cccc(Cl)c1 [I-004] | 100 |
| Cc1nn(C)c(-c2ccc(F)cc2Cl)c1C(=O)Nc1cc(F)ccc1F [I-008] | 80 |
| Cc1nn(C)c(-c2ccc(F)cc2Cl)c1C(=O)Nc1cccc2c1C(C)OC2(C)C (centres unmarked) [I-019] | 100 |
| Cc1cccc(NC(=O)c2c(C)nn(C)c2-c2ccc(F)cc2Cl)c1 [I-022] | 100 |
| Cc1nn(C)c(-c2ccc(F)cc2Cl)c1C(=O)Nc1ccccc1Cl [I-029] | 100 |

Tested on: Viola tricolor
Assay: Post-emergence herbicidal action
Type: in vivo
Details: 320 g/ha, rated after about 3 weeks, 100% = plants have died, 0% = like control plants
Protocol: as §1

| Structure (SMILES) | herbicidal activity on Viola tricolor (visual rating vs untreated controls) [%] |
| --- | --- |
| Cc1nn(C)c(-c2cc(F)ccc2Cl)c1C(=O)Nc1cccc(Cl)c1 [I-004] | 100 |
| Cc1nn(C)c(-c2ccc(F)cc2Cl)c1C(=O)Nc1cc(F)ccc1F [I-008] | 100 |
| Cc1nn(C)c(-c2ccc(F)cc2Cl)c1C(=O)Nc1cccc2c1C(C)OC2(C)C (centres unmarked) [I-019] | 100 |
| Cc1cccc(NC(=O)c2c(C)nn(C)c2-c2ccc(F)cc2Cl)c1 [I-022] | 100 |
| Cc1nn(C)c(-c2ccc(F)cc2Cl)c1C(=O)Nc1ccccc1Cl [I-029] | 100 |
| Cc1cccc(NC(=O)c2c(C)nn(C)c2-c2ccc(F)cc2Cl)c1C [I-030] | 100 |

Tested on: Matricaria inodora
Assay: Pre-emergence herbicidal action
Type: in vivo
Details: 320 g/ha, scored after about 3 weeks, 100% = plants have died, 0% = like control plants
Description: (§2) Seeds of monocotyledonous and dicotyledonous weed plants and crop plants were placed in plastic or wood-fiber pots and covered with soil. The compounds of the invention, formulated in the form of wettable powders (WP) or as emulsion concentrates (EC), were then applied to the surface of the covering soil as aqueous suspension or emulsion with addition of 0.5% additive at a water application rate equivalent to 600 l/ha. After the treatment, the pots were placed in a greenhouse and kept under good growth conditions for the test plants. After about 3 weeks, the effect of the preparations is scored visually in comparison with untreated controls as percentages. For example, 100% activity=the plants have died, 0% activity=like control plants. Tables B7 to B11 below show the effects of selected compounds of the general formula (I) according to Table A1 at an application rate of 320 g/ha on various harmful plants, which were obtained by the aforementioned experimental procedure.

| Structure (SMILES) | herbicidal activity on Matricaria inodora (visual rating vs untreated controls) [%] |
| --- | --- |
| Cc1nn(C)c(-c2cc(F)ccc2Cl)c1C(=O)Nc1cccc(Cl)c1 [I-004] | 90 |
| Cc1nn(C)c(-c2ccc(F)cc2Cl)c1C(=O)Nc1cc(F)ccc1F [I-008] | 90 |
| Cc1nn(C)c(-c2ccc(F)cc2Cl)c1C(=O)Nc1cccc2c1C(C)OC2(C)C (centres unmarked) [I-019] | 100 |
| Cc1cccc(NC(=O)c2c(C)nn(C)c2-c2ccc(F)cc2Cl)c1 [I-022] | 100 |
| Cc1nn(C)c(-c2ccc(F)cc2Cl)c1C(=O)Nc1ccccc1Cl [I-029] | 100 |
| Cc1cccc(NC(=O)c2c(C)nn(C)c2-c2ccc(F)cc2Cl)c1C [I-030] | 100 |

Tested on: Amaranthus retroflexus
Assay: Pre-emergence herbicidal action
Type: in vivo
Details: 320 g/ha, scored after about 3 weeks, 100% = plants have died, 0% = like control plants
Description: as §2

| Structure (SMILES) | herbicidal activity on Amaranthus retroflexus (visual rating vs untreated controls) [%] |
| --- | --- |
| Cc1nn(C)c(-c2cc(F)ccc2Cl)c1C(=O)Nc1cccc(Cl)c1 [I-004] | 100 |
| Cc1nn(C)c(-c2ccc(F)cc2Cl)c1C(=O)Nc1cc(F)ccc1F [I-008] | 100 |
| Cc1nn(C)c(-c2ccc(F)cc2Cl)c1C(=O)Nc1cccc2c1C(C)OC2(C)C (centres unmarked) [I-019] | 100 |
| Cc1cccc(NC(=O)c2c(C)nn(C)c2-c2ccc(F)cc2Cl)c1 [I-022] | 100 |
| Cc1cccc(NC(=O)c2c(C)nn(C)c2-c2ccc(F)cc2Cl)c1C [I-030] | 100 |

Tested on: Stellaria media
Assay: Pre-emergence herbicidal action
Type: in vivo
Details: 320 g/ha, scored after about 3 weeks, 100% = plants have died, 0% = like control plants
Description: as §2

| Structure (SMILES) | herbicidal activity on Stellaria media (visual rating vs untreated controls) [%] |
| --- | --- |
| Cc1nn(C)c(-c2cc(F)ccc2Cl)c1C(=O)Nc1cccc(Cl)c1 [I-004] | 80 |
| Cc1nn(C)c(-c2ccc(F)cc2Cl)c1C(=O)Nc1cc(F)ccc1F [I-008] | 100 |
| Cc1nn(C)c(-c2ccc(F)cc2Cl)c1C(=O)Nc1cccc2c1C(C)OC2(C)C (centres unmarked) [I-019] | 100 |
| Cc1cccc(NC(=O)c2c(C)nn(C)c2-c2ccc(F)cc2Cl)c1 [I-022] | 100 |
| Cc1nn(C)c(-c2ccc(F)cc2Cl)c1C(=O)Nc1ccccc1Cl [I-029] | 100 |
| Cc1cccc(NC(=O)c2c(C)nn(C)c2-c2ccc(F)cc2Cl)c1C [I-030] | 100 |

Tested on: Veronica persica
Assay: Pre-emergence herbicidal action
Type: in vivo
Details: 320 g/ha, scored after about 3 weeks, 100% = plants have died, 0% = like control plants
Description: as §2

| Structure (SMILES) | herbicidal activity on Veronica persica (visual rating vs untreated controls) [%] |
| --- | --- |
| Cc1cccc(NC(=O)c2c(C)nn(C)c2-c2ccc(F)cc2Cl)c1 [I-022] | 100 |
| Cc1cccc(NC(=O)c2c(C)nn(C)c2-c2ccc(F)cc2Cl)c1C [I-030] | 100 |

Tested on: Viola tricolor
Assay: Pre-emergence herbicidal action
Type: in vivo
Details: 320 g/ha, scored after about 3 weeks, 100% = plants have died, 0% = like control plants
Description: as §2

| Structure (SMILES) | herbicidal activity on Viola tricolor (visual rating vs untreated controls) [%] |
| --- | --- |
| Cc1nn(C)c(-c2cc(F)ccc2Cl)c1C(=O)Nc1cccc(Cl)c1 [I-004] | 80 |
| Cc1nn(C)c(-c2ccc(F)cc2Cl)c1C(=O)Nc1cc(F)ccc1F [I-008] | 100 |
| Cc1nn(C)c(-c2ccc(F)cc2Cl)c1C(=O)Nc1cccc2c1C(C)OC2(C)C (centres unmarked) [I-019] | 100 |
